# Laboratory results from patent US9211310B2, “Use of a Chinese medicine composition in preparing medicaments for treating secondary prevention of myocardial infarction” (TASLY PHARMACEUTICAL GROUP CO., LTD, priority 2010, dated 2015).
# Test system: patients after acute myocardial infarction
# Experiment: Angina pectoris score, total and single (frequency/attack times, duration, pain degree, dose of nitroglycerin), same clinical trial
# Assay type: in vivo, human
# Description: In order to better understand the present invention, a multi-center, randomized, double-blind, double-dummy and positive drug controlled trial had been conducted. 3508 patients who were in accordance with the diagnostic standards of AMI for 28 days to 2 years and differentiated as Qi deficiency and blood stagnation syndrome by TCM were studied. 0.5 g Chinese medicine composition prepared by the method of EXAMPLE 1 (Coded as QSYQ) was administrated half an hour after meal, 3 times per day. Aspirine was used as a positive drug. The patients were treated for 1 year and observed for 6 months.
# They included the overall survival time, angina pectoris score, TCM symptom score and life quality score, where angina pectoris score, TCM symptom score and life quality score were evaluated at randomization, in 1st, 3rd, 6th, 9th, 12th month after treatment and 18th month after follow-up.
# Total angina pectoris score was described on every observation period and the change of observation in comparison with baseline. T-test or Wilcoxon rank sum test were used for inter-group comparison. Grade of total score was evaluated on every observation and Wilcoxon rank sum test was used for inter-group comparison. T-test and Pairing signed rank sum test were used for analyzing the change of total score on every observation between groups in comparison with the baseline.
# Single angina pectoris score was depicted on every observation time-point and the change of observation in comparison with baseline. Wilcoxon rank sum test was used for inter-group comparison. Pairing signed rank sum test was used for analyzing the change of total score on every observation between groups in comparison with the baseline.
# Total angina pectoris score was described on every observation period and the change of observation in comparison with the baseline. T-test or Wilcoxon rank sum test were used for inter-group comparison. Grade of total score was evaluated on every observation and Wilcoxon rank sum test was used for inter-group comparison. T-test and Pairing signed rank sum test were used for analyzing the change of total score on every observation between groups in comparison with the baseline.
# Single angina pectoris score was described on every observation time-point and the change of observation in comparison with baseline. Wilcoxon rank sum test was used for inter-group comparison. Pairing signed rank sum test was used for analyzing the change of total score on every observation between groups in comparison with the baseline.
structure (smiles),measurement,setting,value
"CC(=O)Oc1ccccc1C(=O)O [Control group, aspirine]","change of attack times score, patients (%)","1 month after treatment-baseline, change 0, FAS",(74.81%)
same,"change of attack times score, patients (%)","1 month after treatment-baseline, change 0, PP",(74.53%)
same,"change of attack times score, patients (%)","1 month after treatment-baseline, change 1, FAS",(2.07%)
same,"change of attack times score, patients (%)","1 month after treatment-baseline, change 1, PP",(1.95%)
same,"change of attack times score, patients (%)","1 month after treatment-baseline, change 2, FAS",(2.35%)
same,"change of attack times score, patients (%)","1 month after treatment-baseline, change 2, PP",(2.08%)
same,"change of attack times score, patients (%)","1 month after treatment-baseline, change 3, FAS",(0.11%)
same,"change of attack times score, patients (%)","1 month after treatment-baseline, change 3, PP",(0.13%)
same,"change of attack times score, patients (%)","1 month after treatment-baseline, change 4, FAS",(0.06%)
same,"change of attack times score, patients (%)","1 month after treatment-baseline, change 4, PP",(0.07%)
same,"change of attack times score, patients (%)","1 month after treatment-baseline, change −1, FAS",(7.11%)
same,"change of attack times score, patients (%)","1 month after treatment-baseline, change −1, PP",(7.06%)
same,"change of attack times score, patients (%)","1 month after treatment-baseline, change −2, FAS",(11.99%)
same,"change of attack times score, patients (%)","1 month after treatment-baseline, change −2, PP",(12.63%)
same,"change of attack times score, patients (%)","1 month after treatment-baseline, change −3, FAS",(0.34%)
same,"change of attack times score, patients (%)","1 month after treatment-baseline, change −3, PP",(0.40%)
same,"change of attack times score, patients (%)","1 month after treatment-baseline, change −4, FAS",(1.03%)
same,"change of attack times score, patients (%)","1 month after treatment-baseline, change −4, PP",(1.08%)
same,"change of attack times score, patients (%)","1 month after treatment-baseline, change −5, FAS",(0.00%)
same,"change of attack times score, patients (%)","1 month after treatment-baseline, change −5, PP",(0.00%)
same,"change of attack times score, patients (%)","1 month after treatment-baseline, change −6, FAS",(0.11%)
same,"change of attack times score, patients (%)","1 month after treatment-baseline, change −6, PP",(0.07%)
same,"attack times score, patients (%)","3 months after treatment, score 0, FAS",(40.02%)
same,"attack times score, patients (%)","3 months after treatment, score 0, PP",(40.46%)
same,"attack times score, patients (%)","3 months after treatment, score 1, FAS",(14.11%)
same,"attack times score, patients (%)","3 months after treatment, score 1, PP",(13.92%)
same,"attack times score, patients (%)","3 months after treatment, score 2, FAS",(41.46%)
same,"attack times score, patients (%)","3 months after treatment, score 2, PP",(41.89%)
same,"attack times score, patients (%)","3 months after treatment, score 4, FAS",(4.30%)
same,"attack times score, patients (%)","3 months after treatment, score 4, PP",(3.60%)
same,"attack times score, patients (%)","3 months after treatment, score 6, FAS",(0.11%)
same,"attack times score, patients (%)","3 months after treatment, score 6, PP",(0.14%)
same,"change of attack times score, patients (%)","3 months after treatment-baseline, change 0, FAS",(65.52%)
same,"change of attack times score, patients (%)","3 months after treatment-baseline, change 0, PP",(65.15%)
same,"change of attack times score, patients (%)","3 months after treatment-baseline, change 1, FAS",(3.10%)
same,"change of attack times score, patients (%)","3 months after treatment-baseline, change 1, PP",(2.79%)
same,"change of attack times score, patients (%)","3 months after treatment-baseline, change 2, FAS",(2.24%)
same,"change of attack times score, patients (%)","3 months after treatment-baseline, change 2, PP",(1.83%)
same,"change of attack times score, patients (%)","3 months after treatment-baseline, change 3, FAS",(0.00%)
same,"change of attack times score, patients (%)","3 months after treatment-baseline, change 4, FAS",(0.17%)
same,"change of attack times score, patients (%)","3 months after treatment-baseline, change 4, PP",(0.14%)
same,"change of attack times score, patients (%)","3 months after treatment-baseline, change −1, FAS",(10.96%)
same,"change of attack times score, patients (%)","3 months after treatment-baseline, change −1, PP",(11.21%)
same,"change of attack times score, patients (%)","3 months after treatment-baseline, change −2, FAS",(15.78%)
same,"change of attack times score, patients (%)","3 months after treatment-baseline, change −2, PP",(16.51%)
same,"change of attack times score, patients (%)","3 months after treatment-baseline, change −3, FAS",(0.46%)
same,"change of attack times score, patients (%)","3 months after treatment-baseline, change −3, PP",(0.54%)
same,"change of attack times score, patients (%)","3 months after treatment-baseline, change −4, FAS",(1.43%)
same,"change of attack times score, patients (%)","3 months after treatment-baseline, change −4, PP",(1.56%)
same,"change of attack times score, patients (%)","3 months after treatment-baseline, change −5, FAS",(0.11%)
same,"change of attack times score, patients (%)","3 months after treatment-baseline, change −5, PP",(0.14%)
same,"change of attack times score, patients (%)","3 months after treatment-baseline, change −6, FAS",(0.23%)
same,"change of attack times score, patients (%)","3 months after treatment-baseline, change −6, PP",(0.14%)
same,"attack times score, patients (%)","6 months after treatment, score 0, FAS",(44.55%)
same,"attack times score, patients (%)","6 months after treatment, score 0, PP",(45.98%)
same,"attack times score, patients (%)","6 months after treatment, score 1, FAS",(15.54%)
same,"attack times score, patients (%)","6 months after treatment, score 1, PP",(15.92%)
same,"attack times score, patients (%)","6 months after treatment, score 2, FAS",(36.81%)
same,"attack times score, patients (%)","6 months after treatment, score 2, PP",(36.17%)
same,"attack times score, patients (%)","6 months after treatment, score 4, FAS",(3.04%)
same,"attack times score, patients (%)","6 months after treatment, score 4, PP",(1.85%)
